For 12 compounds, inhibition results are on record in ChEMBL document CHEMBL4418270, “Novel Pyrimidine- And Triazine-Hepcidine Antagonists” (2012).

The experiment has as its target T1, Hepcidin (Homo sapiens) (UniProt P81172).
T1 sequence (whole entry): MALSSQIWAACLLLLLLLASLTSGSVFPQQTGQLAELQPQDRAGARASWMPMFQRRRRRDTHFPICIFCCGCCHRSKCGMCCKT
Put plainly: Inhibition of human hepcidin-stimulated recombinant C-terminal Halo-tagged human FPN internalization in MDCK cells at 10 uM incubated for 15 to 20 mins by Halo-tagged TMR based fluorescence assay relative to control. Type of experiment: cell-based.

In general, inhibition refers to the change of the read-out against control, counted positive when it falls. In the case of `Oc1cccc(/C=N/Nc2cc(N3CCOCC3)nc(N3CCOCC3)n2)c1`, the inhibition is above 50%. To `Oc1ccccc1/C=N/Nc1cc(N2CCOCC2)nc(N2CCOCC2)n1` belongs above 50%; to `Cc1nc(-c2ccccn2)nc(NCCNc2cc(C(F)(F)F)ccn2)c1Cl`, below 50%; to `Cc1nc(-c2ccccn2)nc(NCCNc2ccc(C(F)(F)F)cn2)c1Cl`, below 50%. Turning to `CN(c1ccccc1)c1nc(N2CCOCC2)nc(-n2ccnc2)n1`, the inhibition was below 50%. As for `Cc1nc(N/N=C/c2ccc(O)cc2O)cc(N2CCOCC2)n1`, the inhibition is above 50%. To `Cc1ccc2cc(Nc3nc(N4CCOCC4)nc(N4CCOCC4)n3)ccc2n1` belongs below 50%; to `COc1ccc(O)c(/C=N/Nc2nc(N3CCOCC3)nc(N3CCOCC3)n2)c1`, above 50%; to `C/C(=N\Nc1cc(N2CCOCC2)nc(C)n1)c1ccc(F)cc1`, below 50%. On to `COc1cnc(-c2ccccn2)nc1NC(C)C`, for which the inhibition was above 50%. Under `Nc1nc(-c2ccccn2)nc(N)c1Cc1ccccc1F` stands below 50%; under `c1ccc(N(c2ccccc2)c2nc(N3CCOCC3)nc(-n3ccnc3)n2)cc1`, above 50%.
